Assay results: patent US5753648A, “Tricyclic benzazepine vasopressin antagonists” (American Cyanamid Company, priority 1996, dated 1998)

How the values were obtained:
[1] = biological target: T1, Vasopressin V1 receptor subtype in Human Platelet Membranes (Homo sapiens, UniProt P37288); assay: Binding to Vasopressin V1 receptor subtype in Human Platelet Membranes; conditions: * V1 receptor subtype in human platelet
T1 construct: Frozen platelet rich plasma (PRP), received from the Hudson Valley Blood Services, are thawed to room temperature; tissue Hudson Valley Blood Services; host or cells: human platelets (platelet rich plasma)
T1 sequence (P37288 whole entry): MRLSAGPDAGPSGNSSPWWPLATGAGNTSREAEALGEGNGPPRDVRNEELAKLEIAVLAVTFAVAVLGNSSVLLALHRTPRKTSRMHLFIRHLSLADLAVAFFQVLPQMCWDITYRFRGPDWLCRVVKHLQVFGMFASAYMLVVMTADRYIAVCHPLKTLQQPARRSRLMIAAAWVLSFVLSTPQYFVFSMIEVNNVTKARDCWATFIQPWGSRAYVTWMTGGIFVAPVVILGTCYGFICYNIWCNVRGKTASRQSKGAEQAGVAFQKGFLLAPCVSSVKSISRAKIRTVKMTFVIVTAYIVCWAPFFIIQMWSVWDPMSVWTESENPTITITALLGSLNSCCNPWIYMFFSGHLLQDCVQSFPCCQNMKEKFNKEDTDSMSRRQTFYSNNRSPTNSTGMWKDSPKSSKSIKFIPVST
Method: Radioligand Binding Experiments with Human Platelet Membranes
Platelet Source: Hudson Valley Blood Services,
Westchester Medical Center, Valhalla, N.Y.
Platelet Membrane Preparation
Frozen platelet rich plasma (PRP), received from the Hudson Valley Blood Services, are thawed to room temperature. The tubes containing the PRP are centrifuged at 16,000×g for 10 min. at 4° C. and the supernatant fluid discarded. The platelets resuspended in an equal volume of 50.0 mM Tris.HCl, pH 7.5 containing 120 mM NaCl and 20.0 mM EDTA. The suspension is recentrifuged at 16,000×g for 10 min. This washing step is repeated one more time. The wash discarded and the lysed pellets homogenized in low ionic strength buffer of Tris.HCl, 5.0 mM, pH 7.5 containing 5.0 mM EDTA. The homogenate is centrifuged at 39,000×g for 10 min. The resulting pellet is resuspended in Tris.HCl buffer, 70.0 mM, pH 7.5 and recentrifuged at 39,000×g for 10 min. The final pellet is resuspended in 50.0 mM Tris.HCl buffer pH 7.4 containing 120 mM NaCl and 5.0 mM KCl to give 1.0-2.0 mg protein per ml of suspension.
Binding to Vasopressin V1 receptor subtype in Human Platelet Membranes
In wells of 96 well format microtiter plate, add 100 μl of 50.0 mM Tris.HCl buffer containing 0.2% BSA and a mixture of protease inhibitors (aprotinin, leupeptin etc.). Then add 20 μl of [^3 H]Ligand (Manning or Arg^8 Vasopressin), to give final concentrations ranging from 0.01 to 10.0 nM. Initiate the binding by adding 80.0 μl of platelet suspension (approx. 100 μg protein). Mix all reagents by pipetting the mixture up and down a few times. Non specific binding is measured in the presence of 1.0 μM of unlabeled ligand (Manning or Arg^8 Vasopressin). Let the mixture stand undisturbed at room temperature for ninety (90) min. Upon this time, rapidly filter off the incubate under vacuum suction over GF/B filters, using a Brandel® Harvester. Determine the radioactivity caught on the filter disks by the addition of liquid scintillant and counting in a liquid scintillator.

[2] = biological target: T2, Rat Kidney Medullary V2 Receptors (Rattus norvegicus, UniProt Q00788); assay: biochemical; type: binding
T2 construct: Medullary tissues from rat kidneys are dissected out; from tissue; host or cells: rat kidney medulla membranes
T2 sequence (Q00788 whole entry): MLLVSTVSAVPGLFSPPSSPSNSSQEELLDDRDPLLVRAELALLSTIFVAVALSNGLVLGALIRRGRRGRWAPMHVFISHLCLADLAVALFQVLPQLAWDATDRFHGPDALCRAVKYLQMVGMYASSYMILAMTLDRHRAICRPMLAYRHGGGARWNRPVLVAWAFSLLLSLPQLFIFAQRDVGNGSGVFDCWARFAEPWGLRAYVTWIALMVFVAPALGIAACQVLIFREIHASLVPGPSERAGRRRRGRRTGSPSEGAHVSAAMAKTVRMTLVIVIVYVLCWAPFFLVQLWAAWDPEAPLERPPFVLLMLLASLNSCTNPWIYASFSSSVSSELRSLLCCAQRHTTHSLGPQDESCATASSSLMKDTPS

`Cc1ccc(F)cc1C(=O)Nc1ccc(C(=O)N2Cc3cccn3Cc3ccccc32)cn1` [Example 1, N-[5-(5H-Pyrrolo[2,1-c][1,4]benzodiazetin-10(11H)-ylcarbonyl)-2-pyridinyl]-5-fluoro-2-methylbenzamide] showed an IC50 [1] of 20 nM and an IC50 [2] of 4 nM.
